In patent US20240173312A1, “Pharmaceutical Composition Comprising a Benzoheterocyclic Compound and Androgen Receptor Pathway Modulator and Application Thereof” (KANGPU BIOPHARMACEUTICALS, LTD., priority 2015, published 2024):
Like-named read-outs stand apart in the source and are kept apart here.

Test system: Vcap cells (androgen receptor (+) prostate cancer cells)
Test: CTG cell proliferation assay (CellTiter-Glo)
Conditions: for viability at 0.1 µM / viability at 1 µM / viability at 10 µM: Homo sapiens, VCaP, 120 h
[1] = read-out: Survival rate of Vcap cells, Table 3, tested compound alone
[2] = read-out: Survival rate of Vcap cells, Table 4, tested compound alone
[3] = read-out: Survival rate of Vcap cells, Table 5, tested compound alone
[4] = read-out: Survival rate of Vcap cells, Table 5, tested compound alone, 1.0 μM
[5] = read-out: Survival rate of Vcap cells, Table 10, tested compound alone
[6] = read-out: Survival rate of Vcap cells, Table 10, tested compound alone, 1.0 μM
[7] = Table 5, tested compound alone, 1.0 μM
[8] = Table 10, tested compound 0.1 μM in combination with 1 μM B001
[9] = Table 10, tested compound 1.0 μM in combination with 1 μM B001
[10] = Table 10, tested compound 10 μM in combination with 1 μM B001
[11] = Table 10, tested compound 0.1 μM in combination with 1 μM K001
[12] = Table 10, tested compound 1.0 μM in combination with 1 μM K001
[13] = Table 10, tested compound 10 μM in combination with 1 μM K001

Protocol: In vitro test of the inhibition effect of the compound in combination with androgen receptor pathway modulators and the like on the prostate cancer cell proliferation.
The tested compounds were used alone or in combination with other androgen receptor pathway modulators respectively. […] After that, 100 μl of CellTiter-Glo® cell viability assay reagent (Promega, catalogue number G7570) was added to each well and mixed well on a vibrator for 10 minutes to induce cell lysis. The 96-well plate was placed at room temperature for 10 minutes, so as to stabilize its luminescence signal. A white bottom membrane was pasted on the bottom of the plate and the plate was tested using EnSpire.

Cc1nc2cccc(N)c2c(=O)n1C1CCC(=O)NC1=O (stereo not shown) [K001]
viability at 0.1 µM [1]: 85.1%
viability at 1 µM (read-out: Survival rate of Vcap cells, Table 3, tested compound alone, 1.0 μM): 65.8%
viability at 10 µM [1]: 61.4%
viability at 0.1 µM [2]: 85.1%
viability at 1 µM (read-out: Survival rate of Vcap cells, Table 4, tested compound alone, 1 μM): 65.8%
viability at 10 µM [2]: 61.4%
viability at 0.1 µM [3]: 79.2%
viability at 1 µM [4]: 59.7%
viability at 10 µM [3]: 51%
viability at 0.1 µM [5]: 91.2%
viability at 1 µM [6]: 73.8%
viability at 10 µM [5]: 66.1%
Survival rate of Vcap cells (Table 3, tested compound 0.1 μM in combination with 1 μM ARN-509): 43.6%
Survival rate of Vcap cells (Table 3, tested compound 0.1 μM in combination with 1 μM Enzalutamide): 42.4%
Survival rate of Vcap cells (Table 3, tested compound 1.0 μM in combination with 1 μM ARN-509): 36.0%
Survival rate of Vcap cells (Table 3, tested compound 1.0 μM in combination with 1 μM Enzalutamide): 36.4%
Survival rate of Vcap cells (Table 3, tested compound 10 μM in combination with 1 μM ARN-509): 33.5%
Survival rate of Vcap cells (Table 3, tested compound 10 μM in combination with 1 μM Enzalutamide): 35.1%
Survival rate of Vcap cells (Table 3, tested compound alone, 1.0 μM): 65.8%
Survival rate of Vcap cells (Table 4, tested compound 0.1 μM in combination with 1 μM Abiraterone acetate): 70.4%
Survival rate of Vcap cells (Table 4, tested compound 0.1 μM in combination with 1 μM Galeterone): 49.1%
Survival rate of Vcap cells (Table 4, tested compound 1 μM in combination with 1 μM Abiraterone acetate): 53.1%
Survival rate of Vcap cells (Table 4, tested compound 1 μM in combination with 1 μM Galeterone): 41.3%
Survival rate of Vcap cells (Table 4, tested compound 10 μM in combination with 1 μM Abiraterone acetate): 48.1%
Survival rate of Vcap cells (Table 4, tested compound 10 μM in combination with 1 μM Galeterone): 39.4%
Survival rate of Vcap cells (Table 4, tested compound alone, 1 μM): 65.8%
Survival rate of Vcap cells (Table 5, tested compound 0.1 μM in combination with 1 μM ODM-201): 53.5%
Survival rate of Vcap cells (Table 5, tested compound 1.0 μM in combination with 1 μM ODM-201): 40.4%
Survival rate of Vcap cells (Table 5, tested compound 10 μM in combination with 1 μM ODM-201): 35.2%
Survival rate of Vcap cells [7]: 59.7%

C[C@](O)(COc1ccc(C#N)cc1)C(=O)Nc1ccc(C#N)c(C(F)(F)F)c1 [MK-2866, reference compound]
viability at 0.1 µM [5]: 76.5%
viability at 1 µM [6]: 77.4%
viability at 10 µM [5]: 69.4%
Survival rate of Vcap cells [8]: 64.8%
Survival rate of Vcap cells [9]: 65.6%
Survival rate of Vcap cells [10]: 57.8%

CC(O)c1cc(C(=O)N[C@@H](C)Cn2ccc(-c3ccc(C#N)c(Cl)c3)n2)[nH]n1 (stereo partly shown) [ODM-201, reference compound]
viability at 0.1 µM [3]: 90.7%
viability at 1 µM [4]: 69%
viability at 10 µM [3]: 75.4%
Survival rate of Vcap cells [7]: 69.0%

C[C@]12C=CC(=O)C=C1CC[C@@H]1[C@@H]2C(=O)C[C@@]2(C)[C@H]1CC[C@]2(O)C(=O)CO [Prednisone, reference compound]
viability at 0.1 µM [5]: 99.1%
viability at 1 µM [6]: 99.7%
viability at 10 µM [5]: 99.4%
Survival rate of Vcap cells [8]: 87.6%
Survival rate of Vcap cells [11]: 91.5%
Survival rate of Vcap cells [9]: 78.7%
Survival rate of Vcap cells [12]: 74.2%
Survival rate of Vcap cells [10]: 73.8%
Survival rate of Vcap cells [13]: 68.0%

CC(O)(CS(=O)(=O)c1ccc(F)cc1)C(=O)Nc1ccc(C#N)c(C(F)(F)F)c1 (stereo not shown) [bicalutamide, reference compound]
viability at 0.1 µM [5]: 99.2%
viability at 1 µM [6]: 94%
viability at 10 µM [5]: 92%
Survival rate of Vcap cells [8]: 77.1%
Survival rate of Vcap cells [11]: 78.7%
Survival rate of Vcap cells [9]: 69.0%
Survival rate of Vcap cells [12]: 64.1%
Survival rate of Vcap cells [10]: 67.1%
Survival rate of Vcap cells [13]: 61.5%
